Test results published in PubChem BioAssay (NCI).
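GI50: concentration for 50% inhibition of growth. TGI denotes the concentration required for complete inhibition of growth.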

Columns and labels:
Assay in all cases: NCI anticancer screen, dose series, 384-well format
M14 melanoma = tested on: M14 melanoma
UO-31 renal = tested on: UO-31 renal
MCF7 breast = tested on: MCF7 breast
A498 renal = tested on: A498 renal
TK-10 renal = tested on: TK-10 renal
NCI-H522 lung = tested on: NCI-H522 lung
PC-3 prostate = tested on: PC-3 prostate
HOP-62 NSCLC = tested on: HOP-62 NSCLC
SNB-19 CNS = tested on: SNB-19 CNS
U251 glioblastoma = tested on: U251 glioblastoma
RPMI-8226 leukemia = tested on: RPMI-8226 leukemia
MOLT-4 leukemia = tested on: MOLT-4 leukemia
NCI-H322M lung = tested on: NCI-H322M lung
MDA-MB-231 breast = tested on: MDA-MB-231 breast
MDA-MB-435 melanoma = tested on: MDA-MB-435 melanoma
DU-145 prostate = tested on: DU-145 prostate
UACC-62 melanoma = tested on: UACC-62 melanoma
SF-539 CNS = tested on: SF-539 CNS
SNB-75 CNS = tested on: SNB-75 CNS
CCRF-CEM leukemia = tested on: CCRF-CEM leukemia
NCI/ADR-RES ovarian = tested on: NCI/ADR-RES ovarian
786-0 renal = tested on: 786-0 renal
BT-549 breast = tested on: BT-549 breast
SN12C renal = tested on: SN12C renal
SW-620 colon = tested on: SW-620 colon
RXF 393 renal = tested on: RXF 393 renal
UACC-257 melanoma = tested on: UACC-257 melanoma
OVCAR-5 ovarian = tested on: OVCAR-5 ovarian
SK-MEL-5 melanoma = tested on: SK-MEL-5 melanoma
SR leukemia = tested on: SR leukemia
ACHN renal = tested on: ACHN renal
MALME-3M melanoma = tested on: MALME-3M melanoma
IGROV1 ovarian = tested on: IGROV1 ovarian
OVCAR-8 ovarian = tested on: OVCAR-8 ovarian
KM12 colon = tested on: KM12 colon
T-47D breast = tested on: T-47D breast
EKVX NSCLC = tested on: EKVX NSCLC
SK-OV-3 ovarian = tested on: SK-OV-3 ovarian
NCI-H226 lung = tested on: NCI-H226 lung
HS 578T breast = tested on: HS 578T breast
A549 NSCLC = tested on: A549 NSCLC
OVCAR-4 ovarian = tested on: OVCAR-4 ovarian
CAKI-1 renal = tested on: CAKI-1 renal
HCT-15 colon = tested on: HCT-15 colon
SK-MEL-28 melanoma = tested on: SK-MEL-28 melanoma
HCC-2998 colon = tested on: HCC-2998 colon
LOX IMVI melanoma = tested on: LOX IMVI melanoma
HL-60(TB) leukemia = tested on: HL-60(TB) leukemia
HT29 colon = tested on: HT29 colon
SF-295 CNS = tested on: SF-295 CNS
HOP-92 NSCLC = tested on: HOP-92 NSCLC
MDA-MB-468 breast = tested on: MDA-MB-468 breast
SF-268 CNS = tested on: SF-268 CNS
COLO 205 colon = tested on: COLO 205 colon
NCI-H460 NSCLC = tested on: NCI-H460 NSCLC
K-562 leukemia = tested on: K-562 leukemia
NCI-H23 lung = tested on: NCI-H23 lung

Question: CCC[C@H](N[C@@H]1CCc2cc(F)cc(F)c2C1)C(=O)Nc1cn(C(C)(C)CNCC(C)(C)C)cn1 was tested. Which GI50 (M14 melanoma) did it give?
Answer: 13.8 µM

Question: And the TGI (M14 melanoma)?
Answer: 27 µM

Question: What about the GI50 (UO-31 renal) of the same compound?
Answer: 14.6 µM

Question: What about the TGI (UO-31 renal) of the same compound?
Answer: 28.5 µM

Question: What about the GI50 (MCF7 breast) of the same compound?
Answer: 5.11 µM

Question: What about the TGI (MCF7 breast) of the same compound?
Answer: 19.8 µM

Question: And the GI50 (A498 renal)?
Answer: 10.5 µM

Question: What about the TGI (A498 renal) of the same compound?
Answer: 22.8 µM

Question: What about the GI50 (TK-10 renal) of the same compound?
Answer: 16 µM

Question: And the TGI (TK-10 renal)?
Answer: 46 µM

Question: What about the GI50 (NCI-H522 lung) of the same compound?
Answer: 13.2 µM

Question: And the TGI (NCI-H522 lung)?
Answer: 28.8 µM

Question: And the GI50 (PC-3 prostate)?
Answer: 7.53 µM

Question: And the TGI (PC-3 prostate)?
Answer: 21.4 µM

Question: And the GI50 (HOP-62 NSCLC)?
Answer: 15.6 µM

Question: What about the TGI (HOP-62 NSCLC) of the same compound?
Answer: 30.1 µM

Question: What about the GI50 (SNB-19 CNS) of the same compound?
Answer: 16.8 µM

Question: And the TGI (SNB-19 CNS)?
Answer: 39.7 µM

Question: And the GI50 (U251 glioblastoma)?
Answer: 15.5 µM

Question: And the TGI (U251 glioblastoma)?
Answer: 29.3 µM

Question: And the GI50 (RPMI-8226 leukemia)?
Answer: 0.358 µM

Question: What about the TGI (RPMI-8226 leukemia) of the same compound?
Answer: 11.2 µM

Question: What about the GI50 (MOLT-4 leukemia) of the same compound?
Answer: 4.04 µM

Question: And the TGI (MOLT-4 leukemia)?
Answer: 15.2 µM

Question: What about the GI50 (NCI-H322M lung) of the same compound?
Answer: 20.8 µM

Question: What about the TGI (NCI-H322M lung) of the same compound?
Answer: 55.4 µM

Question: What about the GI50 (MDA-MB-231 breast) of the same compound?
Answer: 12.3 µM

Question: What about the TGI (MDA-MB-231 breast) of the same compound?
Answer: 27.1 µM

Question: And the GI50 (MDA-MB-435 melanoma)?
Answer: 16.6 µM

Question: What about the TGI (MDA-MB-435 melanoma) of the same compound?
Answer: 35.1 µM

Question: What about the GI50 (DU-145 prostate) of the same compound?
Answer: 17.2 µM

Question: What about the TGI (DU-145 prostate) of the same compound?
Answer: 48.8 µM

Question: What about the GI50 (UACC-62 melanoma) of the same compound?
Answer: 15.7 µM

Question: And the TGI (UACC-62 melanoma)?
Answer: 29.3 µM

Question: And the GI50 (SF-539 CNS)?
Answer: 16.5 µM

Question: And the TGI (SF-539 CNS)?
Answer: 30.3 µM

Question: And the GI50 (SNB-75 CNS)?
Answer: 15.8 µM

Question: What about the TGI (SNB-75 CNS) of the same compound?
Answer: 42.8 µM

Question: What about the GI50 (CCRF-CEM leukemia) of the same compound?
Answer: 7.5 µM

Question: What about the TGI (CCRF-CEM leukemia) of the same compound?
Answer: 21 µM

Question: What about the GI50 (NCI/ADR-RES ovarian) of the same compound?
Answer: 10.9 µM

Question: And the TGI (NCI/ADR-RES ovarian)?
Answer: 24.3 µM

Question: And the GI50 ([…]-0 renal)?
Answer: 13.4 µM

Question: What about the TGI (786-0 renal) of the same compound?
Answer: 26.5 µM

Question: What about the GI50 (BT-549 breast) of the same compound?
Answer: 9.95 µM

Question: What about the TGI (BT-549 breast) of the same compound?
Answer: 22.1 µM

Question: What about the GI50 (SN12C renal) of the same compound?
Answer: 19.4 µM

Question: And the TGI (SN12C renal)?
Answer: 42.9 µM

Question: And the GI50 (SW-620 colon)?
Answer: 16.2 µM

Question: What about the TGI (SW-620 colon) of the same compound?
Answer: 32.2 µM

Question: And the GI50 (RXF 393 renal)?
Answer: 10.7 µM

Question: And the TGI (RXF 393 renal)?
Answer: 24.1 µM

Question: What about the GI50 (UACC-257 melanoma) of the same compound?
Answer: 0.535 µM

Question: What about the TGI (UACC-257 melanoma) of the same compound?
Answer: 18.4 µM

Question: What about the GI50 (OVCAR-5 ovarian) of the same compound?
Answer: 19.7 µM

Question: What about the TGI (OVCAR-5 ovarian) of the same compound?
Answer: 49.4 µM

Question: What about the GI50 (SK-MEL-5 melanoma) of the same compound?
Answer: 11.2 µM

Question: And the TGI (SK-MEL-5 melanoma)?
Answer: 23.4 µM

Question: And the GI50 (SR leukemia)?
Answer: 4.2 µM

Question: And the TGI (SR leukemia)?
Answer: 16.2 µM

Question: And the GI50 (ACHN renal)?
Answer: 15.4 µM

Question: And the TGI (ACHN renal)?
Answer: 35.2 µM

Question: What about the GI50 (MALME-3M melanoma) of the same compound?
Answer: 2.14 µM

Question: What about the TGI (MALME-3M melanoma) of the same compound?
Answer: 12.2 µM

Question: What about the GI50 (IGROV1 ovarian) of the same compound?
Answer: 17.3 µM

Question: What about the TGI (IGROV1 ovarian) of the same compound?
Answer: 44.6 µM

Question: And the GI50 (OVCAR-8 ovarian)?
Answer: 16.1 µM

Question: And the TGI (OVCAR-8 ovarian)?
Answer: 36.5 µM

Question: What about the GI50 (KM12 colon) of the same compound?
Answer: 14.6 µM

Question: And the TGI (KM12 colon)?
Answer: 29.8 µM

Question: What about the GI50 (T-47D breast) of the same compound?
Answer: 2.11 µM

Question: And the TGI (T-47D breast)?
Answer: 17 µM

Question: What about the GI50 (EKVX NSCLC) of the same compound?
Answer: 14.5 µM

Question: And the TGI (EKVX NSCLC)?
Answer: 44.7 µM

Question: And the GI50 (SK-OV-3 ovarian)?
Answer: 14.2 µM

Question: What about the TGI (SK-OV-3 ovarian) of the same compound?
Answer: 29.5 µM

Question: What about the GI50 (NCI-H226 lung) of the same compound?
Answer: 13.8 µM

Question: And the TGI (NCI-H226 lung)?
Answer: 28.3 µM

Question: And the GI50 (HS 578T breast)?
Answer: 12.3 µM

Question: What about the TGI (HS 578T breast) of the same compound?
Answer: 25.1 µM

Question: What about the GI50 (A549 NSCLC) of the same compound?
Answer: 13.9 µM

Question: What about the TGI (A549 NSCLC) of the same compound?
Answer: 46.8 µM

Question: What about the GI50 (OVCAR-4 ovarian) of the same compound?
Answer: 1.09 µM

Question: What about the TGI (OVCAR-4 ovarian) of the same compound?
Answer: 35.9 µM

Question: And the GI50 (CAKI-1 renal)?
Answer: 14.4 µM

Question: What about the TGI (CAKI-1 renal) of the same compound?
Answer: 29.5 µM

Question: What about the GI50 (HCT-15 colon) of the same compound?
Answer: 8.15 µM

Question: What about the TGI (HCT-15 colon) of the same compound?
Answer: 21.3 µM

Question: What about the GI50 (SK-MEL-28 melanoma) of the same compound?
Answer: 12.7 µM

Question: And the TGI (SK-MEL-28 melanoma)?
Answer: 25.9 µM

Question: And the GI50 (HCC-2998 colon)?
Answer: 6.98 µM

Question: And the TGI (HCC-2998 colon)?
Answer: 19.9 µM

Question: And the GI50 (LOX IMVI melanoma)?
Answer: 17.8 µM

Question: What about the TGI (LOX IMVI melanoma) of the same compound?
Answer: 31.9 µM

Question: What about the GI50 (HL-60(TB) leukemia) of the same compound?
Answer: 2.77 µM

Question: What about the TGI (HL-60(TB) leukemia) of the same compound?
Answer: 14.5 µM

Question: And the GI50 (HT29 colon)?
Answer: 11 µM

Question: What about the TGI (HT29 colon) of the same compound?
Answer: 23.7 µM

Question: What about the GI50 (SF-295 CNS) of the same compound?
Answer: 13.8 µM

Question: What about the TGI (SF-295 CNS) of the same compound?
Answer: 26.9 µM

Question: What about the GI50 (HOP-92 NSCLC) of the same compound?
Answer: 11.7 µM

Question: And the TGI (HOP-92 NSCLC)?
Answer: 24.1 µM

Question: What about the TGI (MDA-MB-468 breast) of the same compound?
Answer: 1.75 µM

Question: What about the GI50 (SF-268 CNS) of the same compound?
Answer: 15.3 µM

Question: And the TGI (SF-268 CNS)?
Answer: 31.3 µM

Question: And the GI50 (COLO 205 colon)?
Answer: 13.1 µM

Question: And the TGI (COLO 205 colon)?
Answer: 36.1 µM

Question: And the GI50 (NCI-H460 NSCLC)?
Answer: 14.9 µM

Question: And the TGI (NCI-H460 NSCLC)?
Answer: 28.9 µM

Question: And the GI50 (K-562 leukemia)?
Answer: 10.6 µM

Question: What about the TGI (K-562 leukemia) of the same compound?
Answer: 22.8 µM

Question: What about the GI50 (NCI-H23 lung) of the same compound?
Answer: 11.9 µM

Question: What about the TGI (NCI-H23 lung) of the same compound?
Answer: 26 µM
